Common to all, as to assay: Anti-proliferative assay, cell-titre luminescent reagent, 72 h (GVK-BIO)
Holding throughout (format): cell-based

The test system of test [1] is A549 non-small cell lung carcinoma cells. The following applies: Homo sapiens, read-out: IC50/μM Lung (NSLC) A549. How it is done:
(§1) The ability of compounds 4001, 4002, 4008, 4010, 4011, 4013-4015, 4018, 4026, 4045-4113 and 4115-4127 to inhibit the proliferation of cancer cells representative of neuroblastoma, melanoma, prostate cancer, colorectal cancer, non-small cell lung carcinoma, and triple negative breast cancer was assessed. These studies were conducted by contract research (GVK-BIO). Briefly, a pre-determined number of cells as calculated from cell growth assays for each of the cell lines employed were seeded into their respective culture medium (using ATCC culture parameters—http://www.atcc.org) and cultured for 24 h at 37° C. and 5% CO2 in 96-well culture plates. Once attached, each cell line was then exposed to various concentrations of each respective analogue (30, 3, 0.3 and 0.03 μM for compounds in Tables 2, 3 and 4; 30, 10, 3, 1, 0.3 and 0.1 μM for compounds in Table 5), cultured for a further 72 h and exposed to cell-titre luminescent reagent (100 μL/well) for a further 30 min). Luminescence was captured using an EnVision multilabel reader and the data for each analogue concentration compared against no treatment control. For compounds in Tables 2-4, semi-log plots of Percent of Control versus concentration were prepared and IC50 determined using linear regression analysis. For compounds in Table 5, cell viability was normalized to control (vehicle alone) and dose-response curves, and half maximal effective concentration (EC50) values were determined using Graph Pad Prism 6 (nonlinear regression sigmoidal dose-response variable slope).

The subject of test [2] is CaCo2 colorectal cancer cells. How it is done: as §1
Test [3] concerns DU145 prostate cancer cells. The following applies: Homo sapiens. How it is done: as §1
The subject of test [4] is MDA-MB-231 triple negative breast cancer cells. The following applies: Homo sapiens. How it is done:
as §1

The test system of test [5] is PC3 prostate cancer cells. How it is done:
as §1

The subject of test [6] is SK-Mel-28 melanoma cells. The following applies: Homo sapiens. How it is done: as §1
Test [7] relates to SK-N-SH neuroblastoma cells. The following applies: Homo sapiens. How it is done: as §1
[8] abbreviates: A549, 72 h, 30, 3, 0.3 and 0.03 μM, linear regression (Tables 2-4).
Setting [9] is: Homo sapiens, Caco-2, 72 h, 30, 3, 0.3 and 0.03 μM, linear regression (Tables 2-4).
[10] abbreviates: DU-145, 72 h, 30, 3, 0.3 and 0.03 μM, linear regression (Tables 2-4).
Setting [11] is: MDA-MB-231, 72 h, 30, 3, 0.3 and 0.03 μM, linear regression (Tables 2-4).
Setting [12] is: 30, 3, 0.3 and 0.03 μM, linear regression (Tables 2-4).
The mark [13] stands for this setting: SK-MEL-28, 72 h, 30, 3, 0.3 and 0.03 μM, linear regression (Tables 2-4).
Setting [14] is: SK-N-SH, 30, 3, 0.3 and 0.03 μM, linear regression (Tables 2-4).
Where [15] appears, read: A549, 72 h, 30, 10, 3, 1, 0.3 and 0.1 μM, nonlinear regression (Table 5).
Where [16] appears, read: Homo sapiens, Caco-2, 72 h, 30, 10, 3, 1, 0.3 and 0.1 μM, nonlinear regression (Table 5).
The mark [17] stands for this setting: DU-145, 72 h, 30, 10, 3, 1, 0.3 and 0.1 μM, nonlinear regression (Table 5).
Setting [18] is: MDA-MB-231, 72 h, 30, 10, 3, 1, 0.3 and 0.1 μM, nonlinear regression (Table 5).
Where [19] appears, read: 30, 10, 3, 1, 0.3 and 0.1 μM, nonlinear regression (Table 5).
Where [20] appears, read: SK-MEL-28, 72 h, 30, 10, 3, 1, 0.3 and 0.1 μM, nonlinear regression (Table 5).
The mark [21] stands for this setting: SK-N-SH, 30, 10, 3, 1, 0.3 and 0.1 μM, nonlinear regression (Table 5).

Where two headings read alike, the source gives them in different places.

For the compound `Cc1c(C)n(CCCN(C)C)c2ccc(Oc3cccc(C(=O)Nc4ccc(F)cc4)c3)cc12` [Compound 4061], the IC50 came out at 3 µM in test [1] (setting [8]); 3.7 µM in test [2] (setting [9]); 3 µM in test [3] (setting [10]); 3.2 µM in test [4] (setting [11]); 2.2 µM in test [5] (setting [12]); 2.5 µM in test [6] (setting [13]). Besides, the IC50 in test [7] (setting [14]) worked out at 2.3 µM.
For `COc1ccc(NC(=O)c2cccc(Oc3ccc4c(c3)c(C)c(C)n4CCCN(C)C)c2)cc1` [Compound 4062], the IC50 turned out to be 2.3 µM in test [1] (setting [8]); 6 µM in test [2] (setting [9]); 4.4 µM in test [3] (setting [10]); 3.7 µM in test [4] (setting [11]); 9 µM in test [5] (setting [12]); 4.3 µM in test [6] (setting [13]). The same compound registered an IC50 in test [7] (setting [14]) of 4.8 µM.
For `Cc1c(C)n(CCCN(C)C)c2ccc(Oc3cccc(C(=O)Nc4ccc5c(c4)OCO5)c3)cc12` [Compound 4063, N-(benzo[d][1,3]dioxol-5-yl)-3-((1-(37(dimethylamino)propyl)-2,3-dimethyl-1H-indol-5-yl)oxy)benzamide], the IC50 was determined as 3 µM in test [1] (setting [8]); 9.6 µM in test [2] (setting [9]); 3.6 µM in test [3] (setting [10]); 3.7 µM in test [4] (setting [11]); 4.9 µM in test [5] (setting [12]); 3.8 µM in test [6] (setting [13]). This compound also registered an IC50 in test [7] (setting [14]) of 4.2 µM.
`Cc1c(C)n(CCCN(C)C)c2ccc(Oc3cccc(C(=O)Nc4cccc(F)c4)c3)cc12` [Compound 4064]: the IC50 in test [1] (setting [8]) came to 3.5 µM; in test [2] (setting [9]), 3.8 µM; in test [3] (setting [10]) it was 3.4 µM; in test [4] (setting [11]), 3.3 µM; in test [5] (setting [12]), 2.6 µM; in test [6] (setting [13]) it was 2.7 µM. The compound further yielded an IC50 in test [7] (setting [14]) of 2.4 µM.
As for `COc1cccc(NC(=O)c2cccc(Oc3ccc4c(c3)c(C)c(C)n4CCCN(C)C)c2)c1` [Compound 4065, 3-((1-(3-(dimethylamino)propyl)-2,3-dimethyl-1H-indol-5-yl)oxy)-N-(3-methoxyphenyl)benzamide], the IC50 was determined as 4.6 µM in test [1] (setting [15]); 6.5 µM in test [2] (setting [16]); 4.2 µM in test [3] (setting [17]); 5 µM in test [4] (setting [18]); 6.5 µM in test [5] (setting [19]); 5 µM in test [6] (setting [20]). In test [7] (setting [21]), the IC50 was determined as 5.2 µM.
Turning to `Cc1c(C)n(CCCN(C)C)c2ccc(Oc3cccc(C(=O)Nc4ccccc4)c3)cc12` [Compound 4066, 3-((1-(3-(dimethylamino)propyl)-2,3-dimethyl-1H-indol-5-yl)oxy)-N-phenylbenzamide], the IC50 in test [1] (setting [15]) came to 8.5 µM; in test [2] (setting [16]), 14.8 µM; in test [3] (setting [17]), 6.9 µM; in test [4] (setting [18]) it was 11.4 µM; in test [5] (setting [19]), 10 µM; in test [6] (setting [20]) it was 4.9 µM. Moreover, the IC50 in test [7] (setting [21]) amounted to 5.4 µM.
As for `CN(C)CCCn1ccc2cc(Nc3cccc(C(=O)Nc4ccc(F)cc4)c3)ccc21` [Compound 4067, 3-((1-(3-(dimethylamino)propyl)-1H-indol-5-yl)amino)-N-(4-fluorophenyl)benzamide], the IC50 came out at 4 µM in test [1] (setting [8]); 4.3 µM in test [2] (setting [12]); 4.3 µM in test [3] (setting [10]); 3.8 µM in test [4] (setting [11]); 4.3 µM in test [5] (setting [12]); 2.5 µM in test [6] (setting [13]). In test [7] (setting [14]), the IC50 was determined as 3.3 µM.
Take `COc1ccc(NC(=O)c2cccc(Nc3ccc4c(ccn4CCCN(C)C)c3)c2)cc1` [Compound 4068, 3-((1-(3-(dimethylamino)propyl)-1H-indol-5-yl)amino)-N-(4-methoxyphenyl)benzamide]: the IC50 was 2.9 µM in test [1] (setting [8]); above 30 µM in test [2] (setting [9]); 5.4 µM in test [3] (setting [10]); 2.8 µM in test [4] (setting [11]); 14.6 µM in test [5] (setting [12]); 2.7 µM in test [6] (setting [13]). In test [7] (setting [14]), this compound had an IC50 of 3.5 µM.
With `CN(C)CCCn1ccc2cc(Nc3cccc(C(=O)Nc4ccc5c(c4)OCO5)c3)ccc21` [Compound 4069, N-(benzo[d][1,3]dioxol-5-yl)-3-((1-(3-(dimethylamino)propyl)-1H-indol-5-yl)amino)benzamide], the IC50 in test [1] (setting [8]) is 4.2 µM; in test [2] (setting [9]), above 30 µM; in test [3] (setting [10]), 4.4 µM; in test [4] (setting [11]), 4.2 µM; in test [5] (setting [12]), 9.9 µM; in test [6] (setting [13]), 2.5 µM. This compound also gave an IC50 in test [7] (setting [14]) of 3.4 µM.
Take `CN(C)CCCn1ccc2cc(Nc3cccc(C(=O)Nc4cccc(F)c4)c3)ccc21` [Compound 4070, 3-((1-(3-(dimethylamino)propyl)-1H-indol-5-yl)amino)-N-(3-fluorophenyl)benzamide]: the IC50 in test [1] (setting [8]) worked out at 2.3 µM; in test [2] (setting [9]) it was 1.7 µM; in test [3] (setting [10]) it was 3.1 µM; in test [4] (setting [11]) it was 1.7 µM; in test [5] (setting [12]), 2.9 µM; in test [6] (setting [13]) it was 2.5 µM. This compound displayed an IC50 in test [7] (setting [14]) of 2.2 µM.
Turning to `COc1cccc(NC(=O)c2cccc(Nc3ccc4c(ccn4CCCN(C)C)c3)c2)c1` [Compound 4071], the IC50 in test [1] (setting [8]) is 4 µM; in test [2] (setting [9]), 12 µM; in test [3] (setting [10]), 4.7 µM; in test [4] (setting [11]), 3.4 µM; in test [5] (setting [12]), 7.6 µM; in test [6] (setting [13]), 4.9 µM. Besides, in test [7] (setting [14]), the IC50 worked out at 3.7 µM.
With `Cc1c(C)n(CCCN(C)C)c2ccc(Nc3cccc(C(=O)Nc4ccc(F)cc4)c3)cc12` [Compound 4072, 3-((1-(3-(dimethylamino)propyl)-2,3-dimethyl-1H-indol-5-yl)amino)-N-(4-fluorophenyl)benzamide], the IC50 in test [1] (setting [8]) was found to be 1.9 µM; in test [2] (setting [9]) it was 2 µM; in test [3] (setting [10]) it was 2.9 µM; in test [4] (setting [11]) it was 1.7 µM; in test [5] (setting [12]), 3.8 µM; in test [6] (setting [13]), 3 µM. The compound also showed an IC50 in test [7] (setting [14]) of 1.7 µM.
With `COc1ccc(NC(=O)c2cccc(Nc3ccc4c(c3)c(C)c(C)n4CCCN(C)C)c2)cc1` [Compound 4073, 3-((1-(3-(dimethylamino)propyl)-2,3-dimethyl-1H-indol-5-yl)amino)-N-(4-methoxyphenyl)benzamide], the IC50 in test [1] (setting [8]) stood at 3.9 µM; in test [2] (setting [9]) it was 2.8 µM; in test [3] (setting [10]), 4 µM; in test [4] (setting [11]), 3.4 µM; in test [5] (setting [12]), 4.2 µM; in test [6] (setting [13]) it was 3.1 µM. In test [7] (setting [14]), this compound yielded an IC50 of 2.6 µM.
For `Cc1c(C)n(CCCN(C)C)c2ccc(Nc3cccc(C(=O)Nc4ccc5c(c4)OCO5)c3)cc12` [Compound 4074, N-(benzo[d][1,3]dioxol-5-yl)-3-((1-(3-(dimethylamino)propyl)-2,3-dimethyl-1H-indol-5-yl)amino)benzamide], the IC50 in test [1] (setting [8]) is 2.5 µM; in test [2] (setting [9]) it was 2.4 µM; in test [3] (setting [10]), 2.8 µM; in test [4] (setting [11]), 1.5 µM; in test [5] (setting [12]), 22.7 µM; in test [6] (setting [13]), 2.7 µM. The same compound yielded an IC50 in test [7] (setting [14]) of 1.3 µM.
On to `Cc1c(C)n(CCCN(C)C)c2ccc(Nc3cccc(C(=O)Nc4cccc(F)c4)c3)cc12` [Compound 4075, 3-((1-(3-(dimethylamino)propyl)-2,3-dimethyl-1H-indol-5-yl)amino)-N-(3-fluorophenyl)benzamide], for which the IC50 turned out to be 2.9 µM in test [1] (setting [8]); 3.3 µM in test [2] (setting [9]); 3 µM in test [3] (setting [10]); 2.6 µM in test [4] (setting [11]); 4.5 µM in test [5] (setting [12]); 2.7 µM in test [6] (setting [13]). This compound gave an IC50 in test [7] (setting [14]) of 2.6 µM.
As for `COc1cccc(NC(=O)c2cccc(Nc3ccc4c(c3)c(C)c(C)n4CCCN(C)C)c2)c1` [Compound 4076, 3-((1-(3-(dimethylamino)propyl)-2,3-dimethyl-1H-indol-5-yl)amino)-N-(3-methoxyphenyl)benzamide], the IC50 in test [1] (setting [8]) came to 1.8 µM; in test [2] (setting [9]), 2.9 µM; in test [3] (setting [10]), 3.2 µM; in test [4] (setting [11]) it was 1.7 µM; in test [5] (setting [12]), 3.7 µM; in test [6] (setting [13]), 2.1 µM. Besides, the IC50 in test [7] (setting [14]) was found to be 2.8 µM.
